Structures can show the parent of a compound that is named as a salt.
What was measured:
S-3769 strain = assay: Combinational effect with antibacterial agent against Pseudomonas aeruginosa (Test Examples 2 and 4): S-3769 strain with AMK or GM at 1/4 MIC, EC99; assay type: cell-based; conditions: S-3769 strain, Test Example 4; for EC99, combinational effect with AMK, S-3769 strain: combined with AMK at 1/4 MIC; for EC99, combinational effect with GM, S-3769 strain: combined with GM at 1/4 MIC
Summary of the method: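 P. aeruginosa S-3769 (clinical isolate, MexY overexpressed) grown 16–20 h in CAMHB, 10^4 to 5 CFU/well, with AMK or GM at ¼ MIC plus test compound 0–800 μM. Growth read as OD595; EC99 is the lowest compound concentration giving ≥99% growth inhibition.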

mexB (PA) strain = assay: Combinational effect with antibacterial agent against Pseudomonas aeruginosa (Test Examples 2 and 4): mexB (PA) strain with LVFX, TC or AZT at 1/4 MIC, EC99; assay type: cell-based; conditions: mexB (PA) strain, Test Example 4; for EC99, combinational effect with AZT, mexB (PA): combined with AZT at 1/4 MIC; for EC99, combinational effect with LVFX, mexB (PA): combined with LVFX at 1/4 MIC; for EC99, combinational effect with TC, mexB (PA): combined with TC at 1/4 MIC
Summary of the method: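 P. aeruginosa mexB (PA) strain, lacking MexCD-OprJ, MexEF-OprN and MexXY and overexpressing MexAB-OprM, grown 16–20 h in CAMHB (10^4–5 CFU/well) with LVFX, TC or AZT at ¼ MIC plus test compound at 0–800 μM. Growth read as OD595; EC99 is the lowest compound concentration giving ≥99% growth inhibition.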

Row | Compound | EC99, combinational effect with AMK, S-3769 strain (S-3769 strain) | EC99, combinational effect with GM, S-3769 strain (S-3769 strain) | EC99, combinational effect with AZT, mexB (PA) (mexB (PA) strain) | EC99, combinational effect with LVFX, mexB (PA) (mexB (PA) strain) | EC99, combinational effect with TC, mexB (PA) (mexB (PA) strain)
1 | N[C@@H](C(=O)N1CCN(Cc2cccc3c2CCN3)CC1)C1CCN(CCc2cc(Cl)ccc2-c2ccccc2)CC1 [Example 513, Hydrobromide of (R)-2-amino-2-(1-(2-(4-chloro-[1,1-biphenyl]-2-yl)ethyl)piperidin-4-yl)-1-(4-(indolin-4-ylmethyl)piperazin-1-yl)ethan-1-one] | B (25 μM<EC99≤100 μM) | B (25 μM<EC99≤100 μM) | B (25 μM<EC99≤100 μM) | B (25 μM<EC99≤100 μM) | B (25 μM<EC99≤100 μM)
2 | N[C@@H](C(=O)N1CCN(Cc2cccc3c2CCCO3)CC1)C1CCN(CCc2cc(Cl)ccc2-c2ccccc2)CC1 [Example 515, Hydrobromide of (R)-2-amino-2-(1-(2-(4-chloro-[1,1-biphenyl]-2-yl)ethyl)piperidin-4-yl)-1-(4-(chroman-5-ylmethyl)piperazin-1-yl)ethan-1-one] | B (25 μM<EC99≤100 μM) | B (25 μM<EC99≤100 μM) | B (25 μM<EC99≤100 μM) | B (25 μM<EC99≤100 μM) | A (12.5 μM<EC99≤25 μM)
3 | Cc1ccsc1CN1CCN(C(=O)[C@H](N)C2CCN(CCc3cc(Cl)ccc3-c3ccccc3)CC2)CC1 [Example 516, Hydrobromide of (R)-2-amino-2-(1-(2-(4-chloro-[1,1-biphenyl]-2-yl)ethyl)piperidin-4-yl)-1-(4-((3-methylthiophen-2-yl)methyl)piperazin-1-yl)ethan-1-one] | B (25 μM<EC99≤100 μM) | B (25 μM<EC99≤100 μM) | B (25 μM<EC99≤100 μM) | B (25 μM<EC99≤100 μM) | B (25 μM<EC99≤100 μM)
4 | N[C@@H](C(=O)N1CCN(Cc2c(F)cccc2N2CCCC2)CC1)C1CCN(CCc2cc(Cl)ccc2-c2ccccc2)CC1 [Example 517, Hydrobromide of (R)-2-amino-2-(1-(2-(4-chloro-[1,1-biphenyl]-2-yl)ethyl)piperidin-4-yl)-1-(4-(2-fluoro-6-(pyrrolidin-1-yl)benzyl)piperazin-1-yl)ethan-1-one] | B (25 μM<EC99≤100 μM) | B (25 μM<EC99≤100 μM) | B (25 μM<EC99≤100 μM) | C (100 μM<EC99) | B (25 μM<EC99≤100 μM)
5 | Nc1nc2c(CN3CCN(C(=O)[C@H](N)C4CCN(CCc5cc(Cl)ccc5-c5ccccc5)CC4)CC3)cccc2s1 [Example 519, Hydrobromide of (R)-2-amino-1-(4-((2-aminobenzo[d]thiazol-4-yl)methyl)piperazin-1-yl)-2-(1-(2-(4-chloro-[1,1-biphenyl]-2-yl)ethyl)piperidin-4-yl)ethan-1-one] | B (25 μM<EC99≤100 μM) | B (25 μM<EC99≤100 μM) | C (100 μM<EC99) | C (100 μM<EC99) | B (25 μM<EC99≤100 μM)
6 | N[C@@H](C(=O)N1CCN(Cc2ccccc2B(O)O)CC1)C1CCN(CCc2cc(Cl)ccc2-c2ccccc2)CC1 [Example 521, Hydrobromide of (R)-(2-((4-(2-amino-2-(1-(2-(4-chloro-[1,1-biphenyl]-2-yl)ethyl)piperidin-4-yl)acetyl)piperazin-1-yl)methyl)phenyl)boronic acid] | B (25 μM<EC99≤100 μM) | B (25 μM<EC99≤100 μM) | C (100 μM<EC99) | C (100 μM<EC99) | C (100 μM<EC99)
7 | COc1cccc(SC)c1CN1CCN(C(=O)[C@H](N)C2CCN(CCc3cc(Cl)ccc3-c3ccccc3)CC2)CC1 [Example 522, Hydrobromide of (R)-2-amino-2-(1-(2-(4-chloro-[1,1-biphenyl]-2-yl)ethyl)piperidin-4-yl)-1-(4-(2-methoxy-6-(methylthio)benzyl)piperazin-1-yl)ethan-1-one] | A (12.5 μM<EC99≤25 μM) | B (25 μM<EC99≤100 μM) | B (25 μM<EC99≤100 μM) | A (12.5 μM<EC99≤25 μM) | B (25 μM<EC99≤100 μM)
8 | N[C@@H](C(=O)N1CCN(CC2CCCCC2)CC1)C1CCN(CCc2cc(Cl)ccc2-c2ccccc2)CC1 [Example 526, Hydrobromide of (R)-2-amino-2-(1-(2-(4-chloro-[1,1-biphenyl]-2-yl)ethyl)piperidin-4-yl)-1-(4-(cyclohexylmethyl)piperazin-1-yl)ethan-1-one] | A (12.5 μM<EC99≤25 μM) | A (12.5 μM<EC99≤25 μM) | B (25 μM<EC99≤100 μM) | B (25 μM<EC99≤100 μM) | A (12.5 μM<EC99≤25 μM)
9 | COc1cccc(NC(=O)C(C)(C)C)c1CN1CCN(C(=O)[C@H](N)C2CCN(CCc3cc(Cl)ccc3-c3ccccc3)CC2)CC1 [Example 527, Hydrobromide of (R)-N-(2-((4-(2-amino-2-(1-(2-(4-chloro-[1,1-biphenyl]-2-yl)ethyl)piperidin-4-yl)acetyl)piperazin-1-yl)methyl)-3-methoxyphenyl)pivalamide] | S (EC99≤12.5 μM) | S (EC99≤12.5 μM) | C (100 μM<EC99) | C (100 μM<EC99) | B (25 μM<EC99≤100 μM)
10 | N[C@@H](C(=O)N1CCN(Cc2c(F)cccc2-c2c[nH]cn2)CC1)C1CCN(CCc2cc(Cl)ccc2-c2ccccc2)CC1 [Example 528, Hydrobromide of (R)-2-amino-2-(1-(2-(4-chloro-[1,1-biphenyl]-2-yl)ethyl)piperidin-4-yl)-1-(4-(2-fluoro-6-(1H-imidazol-4-yl)benzyl)piperazin-1-yl)ethan-1-one] | A (12.5 μM<EC99≤25 μM) | S (EC99≤12.5 μM) | B (25 μM<EC99≤100 μM) | A (12.5 μM<EC99≤25 μM) | A (12.5 μM<EC99≤25 μM)
11 | N[C@@H](C(=O)N1CCN(Cc2ccccc2SC(F)(F)F)CC1)C1CCN(CCc2cc(Cl)ccc2-c2ccccc2)CC1 [Example 529, Hydrobromide of (R)-2-amino-2-(1-(2-(4-chloro-[1,1-biphenyl]-2-yl)ethyl)piperidin-4-yl)-1-(4-(2-((trifluoromethyl)thio)benzyl)piperazin-1-yl)ethan-1-one] | A (12.5 μM<EC99≤25 μM) | B (25 μM<EC99≤100 μM) | C (100 μM<EC99) | A (12.5 μM<EC99≤25 μM) | A (12.5 μM<EC99≤25 μM)
12 | CSc1ccc(F)cc1CN1CCN(C(=O)[C@H](N)C2CCN(CCc3cc(Cl)ccc3-c3ccccc3)CC2)CC1 [Example 530, Hydrobromide of (R)-2-amino-2-(1-(2-(4-chloro-[1,1-biphenyl]-2-yl)ethyl)piperidin-4-yl)-1-(4-(5-fluoro-2-(methylthio)benzyl)piperazin-1-yl)ethan-1-one] | S (EC99≤12.5 μM) | A (12.5 μM<EC99≤25 μM) | B (25 μM<EC99≤100 μM) | S (EC99≤12.5 μM) | S (EC99≤12.5 μM)
13 | CSc1sccc1CN1CCN(C(=O)[C@H](N)C2CCN(CCc3cc(Cl)ccc3-c3ccccc3)CC2)CC1 [Example 531, Hydrobromide of (R)-2-amino-2-(1-(2-(4-chloro-[1,1-biphenyl]-2-yl)ethyl)piperidin-4-yl)-1-(4-((2-(methylthio)thiophen-2-yl)methyl)piperazin-1-yl)ethan-1-one] | A (12.5 μM<EC99≤25 μM) | A (12.5 μM<EC99≤25 μM) | B (25 μM<EC99≤100 μM) | S (EC99≤12.5 μM) | A (12.5 μM<EC99≤25 μM)
14 | CSc1cccc(Cl)c1CN1CCN(C(=O)[C@H](N)C2CCN(CCc3cc(Cl)ccc3-c3ccccc3)CC2)CC1 [Example 532, Hydrobromide of (R)-2-amino-1-(4-(2-chloro-6-(methylthio)benzyl)piperazin-1-yl)-2-(1-(2-(4-chloro-[1,1-biphenyl]-2-yl)ethyl)piperidin-4-yl)ethan-1-one] | B (25 μM<EC99≤100 μM) | B (25 μM<EC99≤100 μM) | B (25 μM<EC99≤100 μM) | B (25 μM<EC99≤100 μM) | B (25 μM<EC99≤100 μM)

Source: patent publication US20250326744A1, “PIPERAZINE DERIVATIVE OR SALT THEREOF, AND PHARMACEUTICAL COMPOSITION” (priority 2022, published 2025)
